In patent publication US7045324B2, “Tocopherol associated protein and uses thereof” (Research Development Foundation, priority 2002, dated 2006):

Key:
[1] = system: MDA-MB-435 cells; assay: PARP cleavage and c-Jun phosphorylation in MDA-MB-435 cells transfected with antisense or sense oligomers to TAP; type: cell-based, human
Text: Antisense oligomers to TAP (both TAP-38 and TAP-46), showing that the induction of apoptosis with vitamin E succinate or compound #1 [2,5,7,8-tetramethyl-(2R-(4R,8R,12-trimethyltridecycl) chroman-6-yloxy) acetic acid] to involve tocopherol associated protein.

[2] = system: MDA-MB-435 human breast cancer cells; assay: Apoptosis (DAPI staining) of TAP siRNA transfected MDA-MB-435 cells treated with tocopherol-based compounds; type: cell-based; settings: TAP siRNA for 6 days, then compound for 2 days (α-TEA 20 μg/ml, VES 20 μg/ml, δT3 5 μg/ml)
Method: MDA-MD-435 cells at 13.5×10^6/55 cm^2 cell culture dish (100 mm×20 mm; catalog # 430293, Corning Inc., Corning, N.Y.) were transiently transfected with in vitro transcribed TAP siRNA (Silencer siRNA Construction Kit, Ambion) using siPORT Lipid following company instructions (catalog # 4505, Ambion, Austin, Tex.). Cells were incubated overnight in culture media, then washed two times with non-supplemented regular MEM media. Next, the cells were incubated overnight in the presence of siRNA/siPORT Lipid [[…]/16 μl or 16 μl siPORT lipid only (as control)] in 5 ml of serum free media (OPTI-MEMI, catalog # 31985–070, Gibco). SiRNA/siPORT Lipid complex was generated by two steps: 1) 16 μl of siPORT lipid was incubated with 60 μl of OPTI-MEMI media for 30 minutes at room temperature; and 2) 60 μl of siPORT Lipid in OPTI-MEMI was then incubated for 20 minutes with 500 μl of diluted TAP siRNA [or 500 μl media as control (5 μl of 10 μl TAP siRNA in 500 μl of OPTI-MEMI media)]. The transfected cells were then split into 12 wells at 1.5×10^5 cells/well for apoptosis and 55 cm^2 dish at 3.5×10^6 cells/dish for Western immunoblot analyses.
The cells in 55 cm^2 dishes were incubated for 8 hours with culture media followed by treatment with 20 μg/ml of α-TEA in 2% serum treatment media for 15 hours. Cells were collected and fractionated, and the lysates were analyzed for TAP protein levels by Western immunoblotting (FIG. 13A). The cells plated in 12-well plates were incubated overnight in culture media followed by treatment with 20 μg/ml of α-TEA, 20 μg/ml of VES, and 5 μg/ml of RRR-δ-tocotrienol (dt3) and cultured for 2 days. Apoptosis was evaluated by DAPI staining (FIG. 13B).
For example, cells transiently transfected with TAP siRNA for 6 days and then treated with α-TEA, VES, or δT3 were inhibited from induction of apoptosis by approximately 60% in comparison to control cells cultured with the three compounds for two days.

[3] = system: tumor cells, normal cells, cells of epithelial or immune origin; settings: cited from earlier work
[4] = system: MDA-MB-435 cells; assay: Apoptosis (nuclear condensation and fragmentation) of MDA-MB-435 cells transfected with antisense oligomers to TAP; type: cell-based, human; settings: antisense to N-terminal region of TAP (TAP-38 and TAP-46)
Method: Apoptosis was determined by examination of nuclear condensation and fragmentation.
Transient transfection of MDA-MB-435 cells with antisense oligomers to the N-terminal region of TAP (interferes with TAP-38 as well as TAP-46 transcription) blocked the ability of tocopherol compounds, vitamin E succinate and compound #1, to induce apoptosis, showing that TAP-38 and TAP-46 are involved in the ability of vitamin E compounds to inhibit tumor cell growth (FIG. 10).

[5] = system: MDA-MB-435 human breast cancer cells; assay: Apoptosis of MDA-MB-435 cells transiently transfected with TAP-38 or TAP-46 cDNA and treated with compound; type: cell-based; settings: 20 micrograms/ml compound
Text: Transient transfection of MDA-MB-435 human breast cancer cells with either TAP-38 or TAP-46 enhanced the ability of tocopherol compound #1 [2,5,7,8-tetramethyl-(2R-(4R,8R,12-trimethyltridecycl) chroman-6-yloxy) acetic acid] to induce apoptosis (FIG. 9).

## Cc1c(C)c2c(c(C)c1OC(=O)CCC(=O)O)CC[C@@](C)(CCC[C@H](C)CCC[C@H](C)CCCC(C)C)O2 [VES, RRR-α-tocopheryl succinate]
[1]
  cleavage of poly ADP-ribose polymerase (PARP) in compound-treated cells with antisense vs sense oligomers to TAP: blocked the cleavage
  phosphorylation of c-Jun in compound-treated cells with antisense vs sense oligomers to TAP: inhibited the phosphorylation
[2]
  inhibition of induction of apoptosis by TAP siRNA in comparison to control cells: approximately 60%
[3]; normal cells
  apoptotic inducing effects on normal cells: no apoptotic inducing effects on normal cells
[3]; tumor cells
  apoptosis of tumor cells: induces tumor cells to undergo apoptosis
[4]
  ability to induce apoptosis in cells transfected with antisense oligomers to TAP, vs sense oligomers: blocked

## CC(C)=CCC/C(C)=C/CC/C(C)=C/CC[C@]1(C)CCc2cc(O)cc(C)c2O1 [δT3, RRR-δ-tocotrienol]
[2]
  inhibition of induction of apoptosis by TAP siRNA in comparison to control cells: approximately 60%

## Cc1c(C)c2c(c(C)c1O)CC[C@@](C)(CCC[C@H](C)CCC[C@H](C)CCCC(C)C)O2 [RRR-α-tocopherol]
[3]; cells of epithelial or immune origin
  antiproliferative and proapoptotic activity: neither antiproliferative nor proapoptotic biological activity

## Cc1c(C)c2c(c(C)c1OCC(=O)O)CC[C@@](C)(CCC[C@H](C)CCC[C@H](C)CCCC(C)C)O2 [α-TEA]
[2]
  inhibition of induction of apoptosis by TAP siRNA in comparison to control cells: approximately 60%

## Cc1c(C)c2c(c(C)c1OCC(=O)O)CC[C@@](C)(CCC[C@H](C)CCC[C@H](C)CCCC(C)C)O2 [compound #1, 2,5,7,8-tetramethyl-(2R-(4R,8R,12-trimethyltridecycl)chroman-6-yloxy) acetic acid]
[1]
  cleavage of poly ADP-ribose polymerase (PARP) in compound-treated cells with antisense vs sense oligomers to TAP: blocked the cleavage
  phosphorylation of c-Jun in compound-treated cells with antisense vs sense oligomers to TAP: inhibited the phosphorylation
[5]
  ability to induce apoptosis in cells transfected with either TAP-38 or TAP-46, vs vector control: enhanced
[4]
  ability to induce apoptosis in cells transfected with antisense oligomers to TAP, vs sense oligomers: blocked
